Test results as given in patent publication US9567301B2, “Pyrrol-1-yl benzoic acid derivatives useful as myc inhibitors” (Whitehead Institute for Biomedical Research, priority 2012, dated 2017).

What was measured:
H2171 cells = assay: Cell viability assay (ATPlite), H2171; format: cell-based, human; details: cell viability, three days, ATPlite, NA: inactive under assay conditions
Procedure: (§1) This assay was used for the H2171 and MM1S cell data shown in Table 2, and for the Jurkat (an immortalized line of human T lymphocyte cells), Ly1 (OCI-Ly1 human non-Hodgkin lymphoma cell line), Ly4 (OCI-Ly4 human non-Hodgkin lymphoma cell line), H2172 (NCI-H2172 human non-small cell lung cancer cell line), and CA-46 (a human Burkitt's lymphoma cell line) cell data shown in Table 3 and FIG. 12. Cells were counted and adjusted to 60,000 cells/mL. Using a Biotek EL406, 50 μL of cells are media were distributed into 384 well white plates from Thermo. Immediately after plating, compound in DMSO was distributed to plates. For large plate sets, cells were returned to 37° C. incubator while not in use.
(§2) Compounds were added to plates using a 100 nL 384 well pin transfer manifold on a Janus workstation. Stocks were arrayed in 10 point quadruplicate dose response in DMSO stock in 384 well Greiner compound plates. After addition of compound, plates were incubated for three days in a 37° C. incubator.
(§3) Cell viability was read out using ATPlite from Perkin Elmer. Plates were removed from the incubator and brought to room temperature prior to use. Lyophilized powder was resuspended in lysis buffer and diluted 1:2 with DI water. 25 μL of this solution was added to each well using the Biotek liquid handler. Plates were sealed with adherent aluminum seals prior to vortexing and spinning down at 1000 g for 1 minute. Plates were incubated for 15 minutes at room temperature before signal was read on an Envision Plate Reader.

MM1S cells = assay: Cell viability assay (ATPlite), MM1S; format: cell-based, human; details: cell viability, three days, ATPlite, NA: inactive under assay conditions
Procedure: as §1, §2, §3

c-Myc/Max/Ebox DNA = c-Myc/Max/Ebox DNA (Homo sapiens, UniProt P01106); assay: c-Myc/Max/Ebox DNA AlphaScreen assay; format: binding; parameters: An exemplary assay uses full-length human c-Myc and Max proteins; his6 (cleaved yes); made in house; details: c-Myc/Max/Ebox DNA AlphaScreen; NA: inactive under assay conditions; read-out: Biochemical IC50
c-Myc/Max/Ebox DNA, sequence (P01106 16-454): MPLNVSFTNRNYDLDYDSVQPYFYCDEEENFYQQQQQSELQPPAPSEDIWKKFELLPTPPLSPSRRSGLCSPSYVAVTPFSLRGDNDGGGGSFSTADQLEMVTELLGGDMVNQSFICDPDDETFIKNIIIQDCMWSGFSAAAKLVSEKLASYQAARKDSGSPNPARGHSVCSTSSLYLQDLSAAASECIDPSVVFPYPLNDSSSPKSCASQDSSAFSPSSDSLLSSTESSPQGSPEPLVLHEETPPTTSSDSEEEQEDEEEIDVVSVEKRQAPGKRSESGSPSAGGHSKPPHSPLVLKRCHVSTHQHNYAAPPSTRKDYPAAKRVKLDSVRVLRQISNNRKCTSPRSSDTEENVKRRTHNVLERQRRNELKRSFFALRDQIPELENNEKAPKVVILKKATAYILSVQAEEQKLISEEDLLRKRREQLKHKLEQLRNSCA
Procedure: This protocol was used to generate the biochemical data in Table 2 and FIG. 11. The primary AlphaScreen assay is amenable to 384-well and 1536-well plate formats for HTS. Human his6-c-Myc and his6-Max were used with biotinylated DNA containing a single Ebox sequence (biotin[…]) purchased from MWG Operon. Free c-Myc was generated from his6-c-Myc through thrombin cleavage of the his6 tag. For 384-well plate assays, 10 μL of a 2× solution of free c-Myc (25 nM final), Ni++-coated Acceptor Bead (25 μg/ml final), and biotinylated Ebox oligo (10 nM final) were added to 384-well plates with a Biotek EL406 liquid handler. 100 nL of compounds from stock plates were added by pin transfer using a Janus Workstation (PerkinElmer), allowing the compounds to interact with c-Myc prior to c-Myc binding with Max. In the current assay, DMSO was not allowed to exceed 2% v/v of the assay. 10 μl of 2× master mix containing streptavidin-coated donor beads (25 μg/ml final) and his6-Max (1.25 nM final) were added. AlphaScreen measurements were performed on an Envision 2104 (PerkinElmer) utilizing the manufacturer's protocol. The assay can also be performed in 1536-plate format with 8 μL total volume using two 4 μL additions (instead of […] and 10 μL respectively).
Assays are performed with minor modifications from the manufacturer's protocol (PerkinElmer). Both master mixes were made in room temperature assay buffer (50 mM HEPES, 150 mM NaCl, 0.2% w/v BSA, 0.02% w/v Tween20, 40 μg/ml glycogen, 500 μM DTT, pH 8.0, DTT and glycogen added fresh). Alpha beads were added to respective master solutions and wrapped in foil. All subsequent steps were performed in low light conditions. Solution 1: 2× solution of components with final concentrations of cMyc (25 nM), Ni-coated Acceptor Bead (25 μg/ml), and biotinylated Ebox oligo (10 nM). Solution 2: 2× solution of streptavidin-coated donor beads (25 μg/ml final) and his6-Max (1.25 nM final). […] Solution 1 were added to 384-well plate (AlphaPlate-384, PerkinElmer) with Biotek EL406 liquid handler and the plates were centrifuged at 1000 rpm for 1 minute. 100 nL of compounds from stock plates were added by pin transfer using a Janus Workstation. 10 μL Solution 2 were added with the liquid handler. Plates were sealed with foil to block light exposure and prevent evaporation. Plates were centrifuged at 1000 rpm for 1 minute followed by 2 hour incubation. AlphaScreen measurements were performed on an Envision 2104 utilizing the manufacturer's protocol. Excitation was at 680 nm for donor bead release of singlet oxygen and emission was read with a bandpass filter from 520-620 nm. Glycogen: Roche Diagnostics #10901393001. Plate 1536: Perkin Elmer, 6004350. Plate 384: Perkin Elmer, 6005350. Nickel-His Alpha Beads: 6760619R.

Row | Structure (SMILES) | EC50 (H2171 cells; Homo sapiens, NCI-H2171, 72 h) [µM] | EC50 (MM1S cells; Homo sapiens, MM1.S, 72 h) [µM] | IC50 (c-Myc/Max/Ebox DNA) [µM] | EC50 (H2171 cells) [µM] | EC50 (MM1S cells) [µM]
1 | Cc1ccc(C)n1-c1ccc(C(=O)O)c(Cl)c1 [Compound 6] | 76.3 | 208 | 81.5 |  | 
2 | Cc1ccc(-c2ccccc2)n1-c1ccc(O)c(C(=O)O)c1 [Compound 12] | 123 | 79.3 | 61.8 |  | 
3 | CCOC(=O)c1ccc(-n2c(C)ccc2-c2ccccc2)cc1 [Compound 13] | 54.4 | 69.9 | 144 |  | 
4 | COC(=O)c1ccccc1-n1c(C)ccc1C [Compound 14] | 86.3 | 223 | 97.3 |  | 
5 | O=C(O)c1ccc(-n2cccc2)cc1O [Compound 16] | 104 | 130 | 165 |  | 
6 | CCCOC(=O)c1ccc(-n2c(CCC(=O)O)ccc2-c2ccccc2)cc1O [Compound 21] | 89.1 | 75.3 | 96 |  | 
7 | CCOC(=O)c1ccc(-n2c(CCC(=O)O)ccc2-c2cccs2)cc1O [Compound 22] | 73.4 | 71.7 | 124 |  | 
8 | CCOC(=O)c1ccc(-n2c(CCC(=O)O)ccc2-c2ccc(Br)cc2)cc1O [Compound 23] | 64.9 | 58 | 81.6 |  | 
9 | CCOC(=O)c1ccc(-n2c(CCC(=O)O)ccc2-c2ccc(OC)cc2)cc1O [Compound 24] | 166 | 83.2 | 116 |  | 
10 | CCOC(=O)c1ccc(-n2c(CCC(=O)O)ccc2-c2ccccc2)cc1O [Compound 25] | 101 | 78.3 | 139 |  | 
11 | Cc1nccn1-c1ccccc1C(=O)O [Compound 26] | 6.27 | 11.5 | 442 |  | 
12 | Cc1ccc(C)n1-c1ccc(C(=O)O)c(O)c1 [Compound 65] |  |  | 61.9 | 189 | 1440
13 | Cc1ccc(C)n1-c1ccccc1CC(=O)O [Compound 68] | 52.9 | 340 | 195 |  | 
14 | Cc1ccc(C)n1-c1ccccc1/C=C/C(=O)O [Compound 69] | 115 | 39 | 156 |  | 
15 | Cc1ccc(C)n1-c1cc(C(=O)NN)ccc1C(=O)O [Compound 70] |  | 1240 | 6.98 | 43.7 | 
16 | Cc1ccc(C)n1-c1cc(C(=O)N/N=C/c2ccccc2)ccc1C(=O)O [Compound 71] | 48.4 | 261 | 103 |  | 
17 | Cc1ccc(C)n1-c1cc(C(=O)NCCc2c[nH]cn2)ccc1C(=O)O [Compound 72] | 198 | 2760 | 15.4 |  | 
18 | Cc1ccc(C)n1-c1cc(C(=O)NCCN2CCN(C)CC2)ccc1C(=O)O [Compound 74] | 120 | 27600 | 104 |  | 

Row | Structure (SMILES) | EC50 (H2171 cells; Homo sapiens, NCI-H2171, 72 h) [µM] | EC50 (MM1S cells; Homo sapiens, MM1.S, 72 h) [µM] | IC50 (c-Myc/Max/Ebox DNA) [µM] | EC50 (H2171 cells) [µM] | EC50 (MM1S cells) [µM]
19 | Cc1ccc(C)n1-c1cc(C(=O)N/N=C/c2ccc3c(c2)OCCN3C)ccc1C(=O)O [Compound 89] | 198 | 92.4 | 38 |  | 
20 | Cc1ccc(C)n1-c1cc(C(=O)N/N=C/c2cc(C(F)(F)F)cc(C(F)(F)F)c2)ccc1C(=O)O [Compound 98] | 24100 | 5170 | 3.84 |  | 
21 | Cc1ccc(C)n1-c1cc(C(=O)N/N=C/c2ccc(F)c(F)c2)ccc1C(=O)O [Compound 99] | 106 | 492 | 4.82 |  | 
22 | Cc1ccc(C)n1-c1ccc(C(=O)O)c(O)c1 [Compound 127] |  |  | 53.3 | 517 | 517
23 | Cc1ccc(C)n1-c1ccccc1S(=O)(=O)O [Compound 128] | 303 | 243 | 252 |  | 
24 | Cc1ccc(C)n1-c1cc2ccccc2cc1C(=O)O [Compound 129] | 151 | 264 | 31 |  | 
25 | Cc1cc(Br)c(-n2c(C)ccc2C)c(C(=O)O)c1 [Compound 130] | 224 | 300 | 51.5 |  | 
26 | Cc1c(C)c(C)n(-c2ccc(C(=O)O)c(O)c2)c1C [Compound 139] | 564 | 329 | 96.4 |  | 
27 | CC(=O)OCOC(=O)c1ccc(-n2c(C)ccc2C)cc1O [Compound 143] |  |  | 91.4 | 66.1 | 161
28 | COc1cc(C(=O)O)c(-n2c(C)ccc2C)cc1OC [Compound 145] | 83.8 | 161 | 13.5 |  | 
29 | Cc1ccc(-c2ccc(-n3c(C)ccc3C)c(C(=O)O)c2)cc1 [Compound 148] | 268 | 1690 | 941 |  | 
30 | CC(=O)OCOC(=O)c1ccccc1-n1c(C)ccc1C [Compound 149] |  |  | 101 | 20.7 | 71.4
31 | CC(=O)OCOC(=O)c1ccccc1-n1cccc1 [Compound 150] | 28 | 99.1 | 150 |  | 
32 | CC(=O)OCOC(=O)c1ccccc1N1CCOCC1 [Compound 152] | 22.8 | 71.9 | 2480 |  | 
33 | Cc1cccc(Nc2ccccc2C(=O)O)c1C [Compound 153] | 93.5 | 185 | 403 |  | 
34 | CC(=O)Nc1ccc(-n2c(C)ccc2C)c(C(=O)O)c1 [Compound 155] | 247 | 222 | 1.8 |  | 
35 | CC(=O)OCOC(=O)c1ccc(Cl)cc1-n1c(C)ccc1C [Compound 158] | 70.3 | 238 | 206 |  | 
36 | CC(=O)OCOC(=O)c1ccccc1N1CCN(C)CC1 [Compound 159] | 84.1 | 209 |  |  | 
